Measurements: patent US7960393B2, “Pyrimidine derivatives useful for the treatment of diseases mediated by CRTH2” (Actimis Pharmaceuticals, Inc., priority 2002, dated 2011)
Read-outs that look alike come from different tables or passages of the source.

Tests used:
human CRTH2 = molecular target: T1, human CRTH2 (Homo sapiens, UniProt Q9Y5Y4); experiment: Measurement of Ca2+ mobilization in the human CRTH2-transfected L1.2 cell line (Assay 1); format: cell-based
T1 construct: expressed in transfected cells; host or cells: L1.2 cells, pEAK expression vector, puromycin-selected
T1 sequence (Q9Y5Y4 1-395): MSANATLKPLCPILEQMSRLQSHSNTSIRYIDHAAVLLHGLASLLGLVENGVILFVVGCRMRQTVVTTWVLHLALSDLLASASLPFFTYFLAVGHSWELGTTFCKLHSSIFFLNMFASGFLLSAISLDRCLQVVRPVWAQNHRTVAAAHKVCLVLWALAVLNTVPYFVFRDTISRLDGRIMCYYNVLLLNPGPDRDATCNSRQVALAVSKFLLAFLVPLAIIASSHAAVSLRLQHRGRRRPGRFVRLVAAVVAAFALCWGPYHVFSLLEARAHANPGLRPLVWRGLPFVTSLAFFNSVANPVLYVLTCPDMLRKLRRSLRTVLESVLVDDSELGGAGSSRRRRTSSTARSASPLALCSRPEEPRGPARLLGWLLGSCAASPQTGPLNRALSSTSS
Method: Human CRTH2 cDNA was amplified from human eosinophil cDNA with gene specific primers containing restriction sites for cloning into pEAK vector (Edge Bio Systems). The human CRTH2 cDNA was cloned into the mammalian expression vector pEAK. This expression plasmid (40 μg) was transfected into L1.2 cells, at a cell density of 1×10^7 cells/500 μl, by using electroporation apparatus (Gene Pulser II, BioRad) at 250V/1,000 μF. One day after the transfection, puromycin (1 μg/ml, Sigma) was added into the cell culture plates. Two weeks after the transfection, grown cells were picked up for further growth.
[Measurement of Ca^2+ Mobilization in the Human CRTH2-Transfected L1.2 Cell Line] (Assay 1)
Ca^2+ loading buffer was prepared by mixing 5 μl of Fluo-3AM (2 mM in DMSO, final 1 μM, Molecular Probes) and 10 μl of pluronic F-127 (Molecular Probes) and diluting the resulting mixture in 10 ml of Ca^2+ assay buffer (20 mM HEPES pH 7.6, 0.1% BSA, 1 mM probenecid, Hanks' solution). The CRTH2 transfected cells which were prepared in Example 1 were washed with PBS, resuspended in Ca^2+ loading buffer at 1×10^7 cells/ml, and incubated for 60 min at room temperature. After incubation, cells were washed and resuspended in Ca^2+ assay buffer, then dispensed into transparent-bottom 96-well plates (#3631, Costar) at 2×10^5 cells/well. Cells were incubated with various concentrations of test compound for 5 minutes at room temperature. The emitted 480 nm fluorescence was measured on FDSS6000, a Ca^2+-measurement apparatus (Hamamatsu Photonics, Hamamatsu, Japan).
Assay results in Assay 1 are shown in Examples and tables of the Examples below. The data corresponds to the compounds as yielded by solid phase synthesis and thus to levels of purity of about 40 to 90%. For practical reasons, the compounds are grouped in four classes of activity as follows: IC50=A(< or =)10 nM<B(< or =)100 nM<C(< or =)500 nM<D

[1] = PGD2-induced Ca2+ mobilization in CRTH2-transfected L1.2 cells, compounds as yielded by solid phase synthesis, purity about 40 to 90%, read-out: Activity class

IC50 (human CRTH2; [1]) | melting point | SMILES | IC50 (human CRTH2)
100 to 500 nM | 150 to 152 °C | CN(C)c1nc(Cc2ccc(NC(=O)c3ccc(Cl)c(Cl)c3)cc2)nc(N2CCCC2)c1CC(=O)O [Example 7-13] | 
< 10 nM | 162 °C | CN(C)c1nc(Cc2ccc(NC(=O)/C=C/c3ccc(Cl)cc3)cc2)nc(N(C)C)c1CC(=O)O [Example 7-8] | 
< 10 nM | 137 to 140 °C | CN(C)c1nc(Cc2ccc(NC(=O)c3ccc(Oc4ccccc4)cc3)cc2)nc(N2CCCC2)c1CC(=O)O [Example 7-24] | 
< 10 nM | 126 to 128 °C | COCc1nc(Cc2ccc(NC(=O)c3ccc(C(F)(F)F)cc3)cc2)nc(N(C)C)c1CC(=O)O [Example 8-7] | 
> 500 nM | 205 to 207 °C | CN(C)c1nc(Cc2ccc(NC(=O)c3ccc4ccccc4n3)cc2)nc(N2CCOCC2)c1CC(=O)O [Example 7-17] | 
10 to 100 nM | 101 to 104 °C | CN(C)c1nc(Cc2ccc(NC(=O)OCc3ccccc3)cc2)ncc1CC(=O)O [Example 9-1, [2-(4-{[(Benzyloxy)carbonyl]amino}benzyl)-4-(dimethylamino)pyrimidin-5-yl]acetic acid] | 
> 500 nM | > 70 °C | CN(CC(=O)NC1CCCC1)c1nc(Cc2ccc(NCc3ccccc3)cc2)nc(Cl)c1CC(=O)O [Example 5-2] | 
< 10 nM | 146 to 149 °C | CN(C)c1nc(Cc2ccc(NC(=O)/C=C/c3ccc(Cl)cc3)cc2)nc(N2CCCC2)c1CC(=O)O [Example 7-10] | 
10 to 100 nM | 212 to 213 °C (dec.) | CN(C)c1nc(Cc2ccc(NC(=O)c3ccc(C(F)(F)F)cc3)cc2)nc(N2CCOCC2)c1CC(=O)O [Example 7-20] | 
10 to 100 nM | 158 to 160 °C | CC(C)c1nc(Cc2ccc(NC(=O)c3ccc4ccccc4c3)cc2)nc(N(C)C)c1CC(=O)O [Example 8-10] | 
> 500 nM | 88 to 90 °C | COCc1nc(Cc2ccc(NC(=O)OCc3ccccc3)cc2)nc(N(C)C)c1CC(=O)O [Example 9-5] | 
10 to 100 nM | 151 to 153 °C | CN(C)c1nc(Cc2ccc(NC(=O)/C=C/c3ccccc3)cc2)nc(N2CCCC2)c1CC(=O)O [Example 7-11] | 
< 10 nM | 153 to 155 °C | CCc1nc(Cc2ccc(NC(=O)c3ccc(C(F)(F)F)cc3)cc2)nc(N(C)C)c1CC(=O)O [Example 8-9] | 

The next lines start with the molecule.

SMILES | IC50 (human CRTH2; [1]) | melting point | IC50 (human CRTH2)
CN(CC(=O)NC1CCCC1)c1nc(Cc2ccc(NC(=O)c3ccccn3)cc2)nc(Cl)c1CC(=O)O [Example 1-2] | > 500 nM | > 135 °C | 
CN(CC(=O)NC1CCCC1)c1nc(Cc2ccc(NC(=O)c3ccc4ccccc4n3)cc2)nc(Cl)c1CC(=O)O [Example 1-16] | < 10 nM | 137 °C | 
CN(C)c1nc(Cc2ccc(NC(=O)c3ccc(C(F)(F)F)cc3)cc2)ncc1CC(=O)O [Example 2-13] | < 10 nM | 149 to 153 °C | 
CN(CC(=O)NC1CCCC1)c1nc(Cc2ccc(NC(=O)CC3CCCCC3)cc2)nc(Cl)c1CC(=O)O [Example 1-13] | 10 to 100 nM | > 149 °C | 
CN(CC(=O)NC1CCCC1)c1nc(Cc2ccc(NC(=O)c3ccc(Cl)cc3)cc2)nc(Cl)c1CC(=O)O [Example 1-18] | < 10 nM | 143 °C | 
CC(C)(C)CC(=O)Nc1ccc(Cc2ncc(CC(=O)O)c(N3CCCC3)n2)cc1 [Example 2-35] | 10 to 100 nM | 147 to 150 °C | 
CN(C)c1nc(Cc2ccc(NC(=O)c3cc(Cl)ccc3Cl)cc2)nc(Cl)c1CC(=O)O [Example 1-44] | < 10 nM | 96 °C | 
CN(C)c1nc(Cc2ccc(NC(=O)c3ccc(Br)cc3)cc2)nc(Cl)c1CC(=O)O [Example 1-42] | < 10 nM | 100 °C | 
CN(C)c1nc(Cc2ccc(NC(=O)c3ccc4ccccc4n3)cc2)nc(Cl)c1CC(=O)O [Example 1-32] | < 10 nM | 135 to 142 °C | 
CN(C)c1nc(Cc2ccc(NC(=O)c3ccc(C(F)(F)F)cc3)cc2)nc(Cl)c1CC(=O)O [Example 1-39] | < 10 nM | > 150 °C | 
CN(CCO)c1nc(Cc2ccc(NC(=O)c3ccc4ccccc4c3)cc2)nc(Cl)c1CC(=O)O [Example 1-66] | < 10 nM | 140 °C | 
O=C(O)Cc1cnc(Cc2ccc(NC(=O)c3ccc(F)cc3)cc2)nc1N1CCCC1 [Example 2-29] | < 10 nM | 143 to 145 °C | 
O=C(O)Cc1c(Cl)nc(Cc2ccc(NC(=O)c3ccc(Cl)cc3)cc2)nc1N1CCCC1 [Example 1-63] | < 10 nM | 173 °C | 
CC(C)Oc1ccc(C(=O)Nc2ccc(Cc3nc(Cl)c(CC(=O)O)c(N4CCCC4)n3)cc2)cc1 [Example 1-56] | < 10 nM | 156 °C | 
COc1ccc(C(=O)Nc2ccc(Cc3nc(Cl)c(CC(=O)O)c(N(C)C)n3)cc2)cc1 [Example 1-36] | < 10 nM | > 130 °C | 
CC(c1ccc(NC(=O)/C=C/c2ccccc2)cc1)c1ncc(CC(=O)O)c(N(C)C)n1 (stereo not drawn) [Example 2-23] | < 10 nM | 150 to 153 °C | 

SMILES | IC50 (human CRTH2; [1]) | melting point | IC50 (human CRTH2)
CN(C)c1nc(Cc2ccc(NC(=O)/C=C/c3ccc(C(F)(F)F)cc3)cc2)nc(Cl)c1CC(=O)O [Example 1-68] | < 10 nM | > 199 °C | 
CN(C)c1nc(Cc2ccc(NC(=O)c3cccc(Cl)c3)cc2)ncc1CC(=O)O [Example 2-15] | 10 to 100 nM | 111 to 113 °C | 
CN(CC(=O)NC1CCCC1)c1nc(Cc2ccc(NC(=O)CC3Cc4ccccc4C3)cc2)nc(Cl)c1CC(=O)O [Example 1-28] | < 10 nM | > 110 °C | 
COc1ccc(C(=O)Nc2ccc(Cc3ncc(CC(=O)O)c(N(C)C)n3)cc2)cc1 [Example 2-7] | < 10 nM | 111 °C | 
CC(C)CC(=O)Nc1ccc(Cc2ncc(CC(=O)[O-])c(N3CCCC3)n2)cc1.[Na+] [Example 2-32] | 10 to 100 nM | 148 to 150 °C | 
O=C(O)Cc1cnc(Cc2ccc(NC(=O)c3ccc4ccccc4c3)cc2)nc1N1CCCC1 [Example 2-31] | < 10 nM | 150 to 151 °C | 
CC(C)C(=O)Nc1ccc(Cc2nc(Cl)c(CC(=O)O)c(N(C)CC(=O)NC3CCCC3)n2)cc1 [Example 1-5] | > 500 nM | > 142 °C | 
COc1ccc(C(=O)Nc2ccc(Cc3nc(Cl)c(CC(=O)O)c(N(C)CC(=O)NC4CCCC4)n3)cc2)cc1 [Example 1-20] | < 10 nM | 104 °C | 
CC(c1ccc(NC(=O)c2ccc3ccccc3n2)cc1)c1ncc(CC(=O)O)c(N(C)C)n1 (stereo not drawn) [Example 2-24] | 10 to 100 nM | 120 to 123 °C | 
COCC(=O)Nc1ccc(Cc2ncc(CC(=O)O)c(N3CCCC3)n2)cc1 [Example 2-34] | > 500 nM | 102 to 105 °C | 
CN(C)c1nc(Cc2ccc(NC(=O)OCc3ccc(F)cc3)cc2)ncc1CC(=O)O [Example 9-2, {4-(dimethylamino)-2-[4-({[(4-fluorobenzyl)oxy]carbonyl}amino)benzyl]pyrimidin-5-yl}acetic acid] |  | 95 to 97 °C | < 10 nM
CN(CC(=O)NC1CCCC1)c1nc(Cc2ccc(NC(=O)c3cccnc3)cc2)nc(Cl)c1CC(=O)O [Example 1-4] | > 500 nM | > 174 °C | 
CN(C)c1nc(Cc2ccc(NC(=O)c3ccc(F)c(F)c3)cc2)nc(Cl)c1CC(=O)O [Example 1-45] | < 10 nM | > 94 °C | 
CN(C)c1nc(Cc2ccc(NC(=O)C3CCC(C(C)(C)C)CC3)cc2)nc(Cl)c1CC(=O)O (stereo not drawn) [Example 1-51] | < 10 nM | 104 °C | 
O=C(O)Cc1c(Cl)nc(Cc2ccc(NC(=O)/C=C/c3ccccc3)cc2)nc1N1CCCC1 [Example 1-60] | < 10 nM | 120 °C | 
N=C(N)Nc1ccc(C(=O)Nc2ccc(Cc3nc(Cl)c(CC(=O)O)c(N4CCCC4)n3)cc2)cc1 [Example 1-52] | > 500 nM | 176 °C | 
